Results published in ChEMBL document CHEMBL4177669 (Bioorg Med Chem Lett, 2017).
In brackets after ≈: the same amount, converted by molar mass.

Assays:
[1] = Clearance in CD-1 mouse at 3 mg/kg, iv; type: ADME, organism-based; conditions: in vivo
[2] = Drug metabolism in rat hepatocytes assessed as acyl glucoronidation at 10 […] after 30 to 120 mins by LC-MS analysis; type: ADME, cell-based, Hepatocyte
[3] = Drug metabolism in human hepatocytes assessed as acyl glucoronidation at 10 […] after 30 to 120 mins by LC-MS analysis; type: ADME, cell-based, Hepatocyte
[4] = Half life in CD-1 mouse at 3 mg/kg, iv; type: ADME, organism-based; conditions: in vivo
[5] = AUC in CD-1 mouse at 3 mg/kg, iv; type: ADME, organism-based; conditions: in vivo
[6] = Half life in Wistar rat at 3 mg/kg, iv; type: ADME, organism-based; conditions: in vivo
[7] = Cmax in cynomolgus monkey at 10 mg/kg, po; type: ADME, organism-based, Macaca fascicularis; design: dose 10 mg/kg, route oral; conditions: in vivo
[8] = Volume of distribution at steady state in CD-1 mouse at 1 mg/kg, iv; type: ADME, organism-based; conditions: in vivo, read-out: Vdss
[9] = AUC in Wistar rat at 3 mg/kg, iv; type: ADME, organism-based; conditions: in vivo
[10] = Oral bioavailability in cynomolgus monkey at 10 mg/kg; type: ADME, organism-based, Macaca fascicularis; conditions: in vivo
[11] = AUC in cynomolgus monkey at 10 mg/kg, po; type: ADME, organism-based, Macaca fascicularis; conditions: in vivo
[12] = AUC in CD-1 mouse at 1 mg/kg, iv; type: ADME, organism-based; conditions: in vivo
[13] = AUC in CD-1 mouse at 10 mg/kg, po; type: ADME, organism-based; conditions: in vivo
[14] = Thermodynamic solubility of the compound; type: physicochemical; conditions: read-out: Therm_solubility
[15] = Cmax in Wistar rat at 10 mg/kg, po; type: ADME, organism-based; design: dose 10 mg/kg, route oral; conditions: in vivo
[16] = AUC in Wistar rat at 10 mg/kg, po; type: ADME, organism-based; conditions: in vivo
[17] = Clearance in cynomolgus monkey at 3 mg/kg, iv; type: ADME, organism-based, Macaca fascicularis; conditions: in vivo
[18] = Clearance in Wistar rat at 3 mg/kg, iv; type: ADME, organism-based; conditions: in vivo
[19] = AUC in cynomolgus monkey at 3 mg/kg, iv; type: ADME, organism-based, Macaca fascicularis; conditions: in vivo
[20] = Half life in cynomolgus monkey at 3 mg/kg, iv; type: ADME, organism-based, Macaca fascicularis; conditions: in vivo
[21] = Half life in CD-1 mouse at 1 mg/kg, iv; type: ADME, organism-based; conditions: in vivo
[22] = Half life in CD-1 mouse at 10 mg/kg, po; type: ADME, organism-based; conditions: in vivo
[23] = Oral bioavailability in Wistar rat at 10 mg/kg; type: ADME, organism-based; conditions: in vivo
[24] = Volume of distribution at steady state in Wistar rat at 3 mg/kg, iv; type: ADME, organism-based; conditions: in vivo, read-out: Vdss
[25] = Clearance in CD-1 mouse at 1 mg/kg, iv; type: ADME, organism-based; conditions: in vivo
[26] = Half life in Wistar rat at 10 mg/kg, po; type: ADME, organism-based; conditions: in vivo
[27] = Half life in cynomolgus monkey at 10 mg/kg, po; type: ADME, organism-based, Macaca fascicularis; conditions: in vivo
[28] = Oral bioavailability in CD-1 mouse at 10 mg/kg; type: ADME, organism-based; conditions: in vivo
[29] = Cmax in CD-1 mouse at 10 mg/kg, po; type: ADME, organism-based; design: dose 10 mg/kg, route oral; conditions: in vivo
[30] = Volume of distribution at steady state in cynomolgus monkey at 3 mg/kg, iv; type: ADME, organism-based, Macaca fascicularis; conditions: in vivo, read-out: Vdss
[31] = Drug metabolism in rat hepatocytes assessed as hydrolysis
[32] = Drug metabolism in rat liver microsomes assessed as N-dealkylation; type: ADME, microsome
[33] = Drug metabolism in rat hepatocytes assessed as oxidation

CC(CCOc1ccccc1CN(C)C(=O)c1ccc(-c2ccco2)cc1)CCC(=O)O (stereo not drawn)
clearance [1]: 4 mL/min/kg | Drug metabolism [2]: Metabolite_Detected | Drug metabolism [3]: Metabolite_Detected | half-life [4]: 1.7 h | AUC [5]: 11800 ng·h/mL

C/C(=C\COc1ccccc1CN(C)C(=O)c1ccc(-c2ccco2)cc1)CCC(=O)O
half-life [6]: 4.5 h | Cmax [7]: 4190 ng/mL | Vd [8]: 2.6 L/kg | AUC [9]: 4650 ng·h/mL | bioavailability [10]: 29% | AUC [11]: 6050 ng·h/mL | AUC [12]: 1980 ng·h/mL | clearance [1]: 15 mL/min/kg | AUC [13]: 16600 ng·h/mL | solubility thermodynamic [14]: 190 µM (≈ 82.4 µg/mL) | Drug metabolism [2]: Metabolite_Detected | Cmax [15]: 3800 ng/mL | AUC [16]: 12500 ng·h/mL | clearance [17]: 8 mL/min/kg | clearance [18]: 7.2 mL/min/kg | AUC [19]: 6200 ng·h/mL | half-life [20]: 1.8 h | half-life [21]: 5.8 h | Drug metabolism [3]: Metabolite_Detected | half-life [22]: 4.3 h | half-life [4]: 2.3 h | bioavailability [23]: 82% | Vd [24]: 0.9 L/kg | clearance [25]: 8.4 mL/min/kg | half-life [26]: 2.5 h | half-life [27]: 1.1 h | bioavailability [28]: 84% | Cmax [29]: 11100 ng/mL | AUC [5]: 3300 ng·h/mL | Vd [30]: 1.3 L/kg

CC(CCCCOc1ccccc1CN(C)C(=O)c1ccc(-c2ccco2)cc1)C(=O)O (stereo not drawn)
clearance [1]: 3 mL/min/kg | Drug metabolism [2]: Metabolite_Detected | Drug metabolism [3]: Metabolite_Detected | half-life [4]: 2.8 h | AUC [5]: 11400 ng·h/mL

C[C@H](CCCOc1ccccc1CN(C)C(=O)c1ccc(-c2ccco2)cc1)CC(=O)O
clearance [1]: 0.3 mL/min/kg | Drug metabolism [2]: Metabolite_Detected | Drug metabolism [3]: Metabolite_Detected | half-life [4]: 3.9 h | AUC [5]: 77700 ng·h/mL

CN(Cc1ccccc1OCCCCCC(=O)O)C(=O)c1ccc(-c2ccco2)cc1
clearance [1]: 44 mL/min/kg | Drug metabolism [2]: Metabolite_Detected | Drug metabolism [3]: Metabolite_Detected | half-life [4]: 1.7 h | AUC [5]: 1100 ng·h/mL

C[C@@H](CCCOc1ccccc1CN(C)C(=O)c1ccc(-c2ccco2)cc1)CC(=O)O
clearance [1]: 1.3 mL/min/kg | Drug metabolism [2]: Metabolite_Detected | Drug metabolism [3]: Metabolite_Detected | half-life [4]: 2 h | AUC [5]: 30800 ng·h/mL

CN(Cc1ccccc1OCCCCC(C)(C)C(=O)O)C(=O)c1ccc(-c2ccco2)cc1
clearance [1]: 1.3 mL/min/kg | Drug metabolism [2]: Metabolite_Detected | Drug metabolism [3]: Metabolite_Detected | half-life [4]: 4.6 h | AUC [5]: 48400 ng·h/mL

CN(Cc1ccccc1OCCC/C=C/C(=O)O)C(=O)c1ccc(-c2ccco2)cc1
clearance [1]: 67 mL/min/kg | Drug metabolism [2]: Metabolite_Detected | Drug metabolism [3]: Metabolite_Detected | half-life [4]: 1.9 h | AUC [5]: 750 ng·h/mL

C/C(=C\CCCOc1ccccc1CN(C)C(=O)c1ccc(-c2ccco2)cc1)C(=O)O
clearance [1]: 4 mL/min/kg | Drug metabolism [2]: Metabolite_Detected | Drug metabolism [3]: Metabolite_Detected | half-life [4]: 1.2 h | AUC [5]: 1300 ng·h/mL

C/C(=C\C(=O)O)CCCOc1ccccc1CN(C)C(=O)c1ccc(-c2ccco2)cc1
clearance [1]: 11 mL/min/kg | Drug metabolism [2]: Metabolite_Detected | Drug metabolism [3]: Metabolite_Detected | half-life [4]: 1.6 h | AUC [5]: 4700 ng·h/mL

O=C(O)CCCCCOc1ccccc1CN(C(=O)c1ccc(-c2ccco2)cc1)C1CC1
Drug metabolism [31]: Metabolite_Detected | Drug metabolism [32]: Metabolite_Detected | Drug metabolism [33]: Metabolite_Detected

CN(Cc1ccccc1OCCC[C@@H]1C[C@@H]1C(=O)O)C(=O)c1ccc(-c2ccco2)cc1 (racemic)
clearance [1]: 1.7 mL/min/kg | Drug metabolism [2]: Metabolite_Detected | Drug metabolism [3]: Metabolite_Detected | half-life [4]: 2.7 h | AUC [5]: 30100 ng·h/mL

CN(Cc1ccccc1OCCC[C@@H]1C[C@H]1C(=O)O)C(=O)c1ccc(-c2ccco2)cc1 (racemic)
clearance [1]: 0.6 mL/min/kg | Drug metabolism [2]: Metabolite_Detected | Drug metabolism [3]: Metabolite_Detected | half-life [4]: 3.5 h | AUC [5]: 40500 ng·h/mL
